Twelve molecules from PubChem BioAssay (NCI) can be followed below.

Among the test systems are BT-549 breast; PC-3 prostate; HS 578T breast; MDA-MB-231 breast; T-47D breast; DU-145 prostate.
Assay in all cases: NCI-60 cell line screen, 48 h

Values joined by “and” are separate entries in the source; they are usually repeats but may differ in a detail not shown here. Equal values may be shown once.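 Where inhibition never reached the appropriate level, the endpoint shown equals the highest concentration tested. Otherwise, values were interpolated linearly from a five-concentration, 48-hour dose response in 96-well plates. GI50 = concentration required for 50% inhibition of growth. TGI denotes the concentration required for complete inhibition of growth.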

With `CN(C)CCCNC1=C(Cl)C(=O)c2ccccc2C1=O`, the GI50 in the experiment with BT-549 breast is 2.14 µM; with PC-3 prostate, 3.12 µM; in the experiment on HS 578T breast, 2.2 µM; in the experiment with MDA-MB-231 breast, 1.79 µM; with T-47D breast, 2.94 µM; with DU-145 prostate, 1.92 µM. The TGI in the experiment with BT-549 breast was determined as 4.96 µM; in the experiment with PC-3 prostate it was 13.2 µM; with HS 578T breast, 7.02 µM; with MDA-MB-231 breast, 3.94 µM; in the experiment on T-47D breast, 9.33 µM; in the experiment on DU-145 prostate, 3.64 µM.
For the molecule `CC[C@@]12CCCN3CC[C@]4(c5cccc(OC)c5N(C(C)=O)[C@@H]4CC1)[C@H]32`, the TGI in the experiment on BT-549 breast, with PC-3 prostate, in the experiment with HS 578T breast, in the experiment on MDA-MB-231 breast, with T-47D breast and with DU-145 prostate was above 100 µM throughout.
For `C[C@@H](CS(C)(=O)=O)Nc1ncc2cc(Oc3ccc(F)cc3F)c(=O)n(C)c2n1`, the GI50 with BT-549 breast, in the experiment on PC-3 prostate, with HS 578T breast, in the experiment on MDA-MB-231 breast, with T-47D breast and in the experiment with DU-145 prostate was above 25 µM throughout. Besides, the TGI with BT-549 breast, in the experiment on PC-3 prostate, in the experiment on HS 578T breast, in the experiment on MDA-MB-231 breast, in the experiment with T-47D breast and in the experiment on DU-145 prostate was above 25 µM each time.
As to `Oc1ccc(Cl)cc1-c1cc(-c2ccccc2Cl)[nH]n1`, the GI50 with BT-549 breast was 36 µM; in the experiment with PC-3 prostate it was 3.02 µM; in the experiment on HS 578T breast, 7.85 µM; in the experiment with MDA-MB-231 breast, 1.44 µM; in the experiment on T-47D breast, 1.61 µM; in the experiment with DU-145 prostate, 8.05 µM. In addition, the TGI with BT-549 breast was above 100 µM; with PC-3 prostate, above 100 µM; in the experiment with HS 578T breast, above 100 µM; in the experiment on MDA-MB-231 breast it was 6.29 µM; with T-47D breast, above 100 µM; in the experiment on DU-145 prostate it was above 100 µM.
As to `Cn1ccnc1C(=O)/C=C/c1ccc(CC(=O)Nc2ccc(Br)cc2)cc1`, the GI50 in the experiment on BT-549 breast is 2.93 µM; in the experiment on PC-3 prostate, 2.87 µM; in the experiment with HS 578T breast, 7.83 µM; with MDA-MB-231 breast, 4.78 µM; with T-47D breast it was 5.5 µM; with DU-145 prostate, 3.93 µM. In addition, the TGI in the experiment with BT-549 breast was 6.43 µM; with PC-3 prostate, 8.25 µM; with HS 578T breast it was above 16.7 µM; in the experiment on MDA-MB-231 breast it was 15.6 µM; in the experiment on T-47D breast, above 16.7 µM; with DU-145 prostate, 12.2 µM.
`c1cc2c(cc1NC1=NCCO1)CCC2`: the TGI in the experiment with PC-3 prostate, in the experiment on HS 578T breast and in the experiment on T-47D breast was above 10 µM in each case.
Consider `Cc1cnc(NC(=O)C(Cc2ccccc2)NC(=O)c2ccccc2)s1` (configuration not stated), for which the GI50 with BT-549 breast is 29.1 µM; in the experiment with HS 578T breast, 6.69 µM; in the experiment with MDA-MB-231 breast it was 6.42 µM; in the experiment on T-47D breast, 23.1 µM; in the experiment on DU-145 prostate, 21.4 µM. For the same molecule, the TGI in the experiment with BT-549 breast was above 100 µM; in the experiment with HS 578T breast it was 35.3 µM; with MDA-MB-231 breast, 27.1 µM; in the experiment on T-47D breast it was 82.6 µM; with DU-145 prostate, 47 µM.
For the molecule `CNC(=O)c1cc(Oc2ccc3nc(NC(=O)Nc4ccc(Cl)c(C(F)(F)F)c4)sc3c2)ccn1`, the GI50 is 2.64 µM in the experiment with BT-549 breast, 1.53 µM in the experiment on HS 578T breast, 1.43 µM with MDA-MB-231 breast and 0.723 µM in the experiment on T-47D breast. Also, the TGI in the experiment on BT-549 breast amounted to 9.73 µM; in the experiment with HS 578T breast it was 6.27 µM; in the experiment on MDA-MB-231 breast, 4.29 µM; with T-47D breast, 3.65 µM.
As for `CN(C)c1ccc(-c2cc(-c3ccc(Nc4nc(Nc5ccc(Cl)cc5)nc(Nc5ccc(Cl)cc5)n4)cc3)no2)cc1`, the GI50 with BT-549 breast is 9.07 µM; in the experiment with HS 578T breast it was 3.97 µM; in the experiment on MDA-MB-231 breast, 9.66 µM; with T-47D breast it was 3.69 µM; with DU-145 prostate, 3.86 µM. For the same molecule, the TGI in the experiment on BT-549 breast was 48.9 µM; with HS 578T breast, above 100 µM; with MDA-MB-231 breast, 37.7 µM; in the experiment with T-47D breast it was 78.5 µM; with DU-145 prostate it was 16.4 µM.
With `CSCCCN(CCCSC)CCCSC`, the TGI in the experiment on BT-549 breast, in the experiment with PC-3 prostate, in the experiment on MDA-MB-231 breast, in the experiment on T-47D breast and in the experiment on DU-145 prostate was above 100 µM each time.
`CC(C)c1ccc(C(C)C(=O)N(CC2=C(C(C)c3ccccn3)c3ccccc3C2)C(C)C)cc1` (configuration not stated): the GI50 with PC-3 prostate was 2.66 µM; in the experiment on HS 578T breast, 1.84 µM; with MDA-MB-231 breast, 3.47 µM; in the experiment on T-47D breast it was 2.94 µM; in the experiment with DU-145 prostate, 5.29 µM. Further, the TGI in the experiment with PC-3 prostate was above 100 µM; in the experiment on HS 578T breast, 13.6 µM; with MDA-MB-231 breast, 22.7 µM; in the experiment with T-47D breast, above 100 µM; in the experiment on DU-145 prostate, 18 µM.
On to `COC(=O)[C@@H](C)C[C@H](Cc1ccc(F)cc1)NC(=O)c1csc([C@@H](C[C@H](C(C)C)N(C)C(=O)[C@@H](NC(=O)[C@H]2CCCCN2C)C(C)C)OC(C)=O)n1`, for which the TGI in the experiment on BT-549 breast is 0.0568 µM and 0.261 µM; in the experiment with PC-3 prostate, above 16.7 µM; in the experiment on DU-145 prostate it was 0.0214 µM. Besides, the GI50 with PC-3 prostate is 0.00196 µM and 0.00756 µM; with HS 578T breast it was 0.00102 µM and 0.00612 µM; in the experiment with MDA-MB-231 breast, 0.0023 µM and 0.0158 µM; in the experiment with DU-145 prostate, 0.000984 µM and 0.00525 µM.
